Reference: patent US7674807B2, “Heterocycle-substituted n-phenyl-phthalamide derivatives, related compounds and their use as insecticides” (Bayer CropScience AG, priority 2004, dated 2010)

How the values were obtained:
[1] = test system: larva of Spodoptera litura; assay: Test against larva of Spodoptera litura (leaf dip, sweet potato leaves); assay type: in vivo; details: 20 ppm concentration of the active component; third instar larvae; counted after 7 days; 25° C.
Procedure: Preparation of Test Solution:
In order to make an appropriate formulation of an active compound, 1 part by weight of the active compound was mixed with the above-mentioned amount of solvent containing the above-mentioned amount of emulsifier and the mixture was diluted with water to a prescribed concentration.
Leaves of sweet potato were soaked in the test solution diluted to a prescribed concentration with water, dried in the air and put in a dish of 9 cm diameter.
10 larvae of Spodoptera litura at the third instar were placed on the leaves and kept in a room at the constant temperature of 25° C. After 2 and 4 days further leaves of sweet potato were added and after 7 days the number of dead larvae was counted and the rate of death was calculated.
In this test the results of 2 dishes at 1 section were averaged.

[2] = test system: larva of Cnaphalocrocis medinalis Guenee; assay: Test against larva of Cnaphalocrocis medinalis Guenee (sprayed paddy rice foliage); assay type: in vivo; details: 20 ppm concentration of the active component; second instar larvae; counted after 7 days; 25° C.
Procedure: Paddy rice (variety: Tamanishiki) planted in a pot was treated by spraying 50 ml per pot of the diluted aqueous solution of the prescribed concentration of the active compound prepared in the same manner as in the above-mentioned Biological Test Example 1. After the treated rice plant was dried in the air, their foliage part was cut in 4-5 cm length, which were put in a dish with 9 cm diameter with a sheet of filter paper and 2 ml of water. Five larvae of Cnaphalocrocis medinalis Guenee at the second instar were put in the dish that was placed in a room at the constant temperature of 25° C. After 2 and 4 days, each rest (each ⅓ amount) of foliage parts of rice plant were cut in the same manner and added to the dish. After 7 days the number of dead larvae was counted and the rate of death was calculated. In this test the results of 2 dishes at 1 section were averaged.

Cc1cc(Cn2nc(C(F)(F)F)cc2C(F)(F)F)ccc1NC(=O)c1cccc(I)c1C(=O)NC(C)(C)CS(C)(=O)=O [compound 84, N^1-{4-[3,5-bis(trifluoromethyl)-1H-pyrazol-1-ylmethyl]-2-methylphenyl}-3-iodo-N^2-(2-methanesulfonyl-1,1-dimethylethyl)phthalamide]
controlling effect, rate of death [1]: 100%
controlling effect, rate of death [2]: 100%

CSC[C@H](C)NC(=O)c1c(C(=O)Nc2ccc(Cn3nc(C(F)(F)F)nc3C(F)(F)F)cc2C)cccc1[N+](=O)[O-] [compound 546]
controlling effect, rate of death [1]: 100%
controlling effect, rate of death [2]: 100%

CSC[C@H](C)NC(=O)c1c(Cl)cccc1C(=O)Nc1ccc(Cn2nc(C(F)(F)C(F)(F)F)cc2C(F)(F)C(F)(F)F)cc1C [compound 626]
controlling effect, rate of death [1]: 100%
controlling effect, rate of death [2]: 100%

Cc1cc(Cn2cc(C(F)(F)C(F)(F)C(F)(F)F)c(C(F)(F)C(F)(F)F)n2)ccc1NC(=O)c1cccc(Cl)c1C(=O)N[C@@H](C)CS(C)(=O)=O [compound 659]
controlling effect, rate of death [1]: 100%
controlling effect, rate of death [2]: 100%

Cc1cc(Cn2nc(C(F)(F)F)cc2C(F)(F)F)ccc1NC(=O)c1cccc(I)c1C(=O)NC(C)C[S+](C)[O-] (mixture of isomers) [compound 88]
controlling effect, rate of death [1]: 100%
controlling effect, rate of death [2]: 100%

CSC[C@H](C)NC(=O)c1c(Cl)cccc1C(=O)Nc1ccc(C(C)n2nc(C(F)(F)C(F)(F)F)nc2C(F)(F)F)cc1C (some centres unmarked) [compound 578]
controlling effect, rate of death [1]: 100%
controlling effect, rate of death [2]: 100%

Cc1cc(Cn2nc(C(F)(F)F)cc2OC(F)F)ccc1NC(=O)c1cccc(I)c1C(=O)NC(C)CS(C)(=O)=O (racemic) [compound 107]
controlling effect, rate of death [1]: 100%
controlling effect, rate of death [2]: 100%

CSC[C@H](C)NC(=O)c1c(C(=O)Nc2ccc(Cn3nc(C(F)(F)F)cc3C(F)(F)F)cc2C)cccc1S(C)(=O)=O [compound 552]
controlling effect, rate of death [1]: 100%
controlling effect, rate of death [2]: 100%

CSC[C@H](C)NC(=O)c1c(Cl)cccc1C(=O)Nc1ccc(Cn2cc(C(F)(F)C(F)(F)C(F)(F)F)c(C(F)(F)C(F)(F)F)n2)cc1C [compound 657]
controlling effect, rate of death [1]: 100%
controlling effect, rate of death [2]: 100%

CSC[C@H](C)NC(=O)c1c(Cl)cccc1C(=O)Nc1ccc(Cn2cc(C(F)(F)C(F)(F)F)c(C(F)(F)F)n2)cc1C [compound 637]
controlling effect, rate of death [1]: 100%
controlling effect, rate of death [2]: 100%

CSCC(C)(C)NC(=O)c1c(Cl)cccc1C(=O)Nc1ccc(Cn2nc(C(F)(F)F)cc2C(F)(F)F)cc1C [compound 8]
controlling effect, rate of death [1]: 100%
controlling effect, rate of death [2]: 100%

Cc1cc(Cn2nc(C(F)(F)F)nc2C(F)(F)F)ccc1NC(=O)c1cccc(OS(C)(=O)=O)c1C(=O)NC(C)C[S+](C)[O-] (centres unmarked) [compound 253]
controlling effect, rate of death [1]: 100%
controlling effect, rate of death [2]: 100%

CSC[C@H](C)NC(=O)c1c(I)cccc1C(=O)Nc1ccc(Cn2cc(C(F)(F)C(F)(F)C(F)(F)F)c(C(F)(F)C(F)(F)F)n2)cc1C [compound 660]
controlling effect, rate of death [1]: 100%
controlling effect, rate of death [2]: 100%

Cc1cc(Cn2cc(C(F)(F)C(F)(F)F)c(C(F)(F)C(F)(F)F)n2)ccc1NC(=O)c1cccc(I)c1C(=O)N[C@@H](C)CS(C)(=O)=O [compound 656]
controlling effect, rate of death [1]: 100%
controlling effect, rate of death [2]: 100%

Cc1cc(Cn2cc(C(F)(F)C(F)(F)C(F)(F)F)c(C(F)(F)C(F)(F)F)n2)ccc1NC(=O)c1cccc(I)c1C(=O)N[C@@H](C)CS(C)(=O)=O [compound 662]
controlling effect, rate of death [1]: 100%
controlling effect, rate of death [2]: 100%

Cc1cc(Cn2cc(C(F)(F)C(F)(F)C(F)(F)C(F)(F)F)c(C(F)(F)F)n2)ccc1NC(=O)c1cccc(Cl)c1C(=O)N[C@@H](C)CS(C)(=O)=O [compound 647]
controlling effect, rate of death [1]: 100%
controlling effect, rate of death [2]: 100%

Cc1cc(Cn2nc(C(F)(F)F)cc2C(F)(F)F)ccc1NC(=O)c1cccc(I)c1C(=O)NC(C)CS(C)(=O)=O (racemic) [compound 89]
controlling effect, rate of death [1]: 100%
controlling effect, rate of death [2]: 100%

CSCC(C)NC(=O)c1c(Br)cccc1C(=O)Nc1ccc(Cn2nc(C(F)(F)F)nc2C(F)(F)F)cc1C (centres unmarked) [compound 177]
controlling effect, rate of death [1]: 100%
controlling effect, rate of death [2]: 100%

CSCC(C)NC(=O)c1c(I)cccc1C(=O)Nc1ccc(-n2nc(C(F)(F)F)cc2C(F)(F)F)cc1C (centres unmarked) [compound 413]
controlling effect, rate of death [1]: 100%
controlling effect, rate of death [2]: 100%

Cc1cc(Cn2nc(C(F)(F)C(F)(F)F)nc2C(F)(F)F)ccc1NC(=O)c1cccc(I)c1C(=O)NC(C)CS(C)(=O)=O (centres unmarked) [compound 230]
controlling effect, rate of death [1]: 100%
controlling effect, rate of death [2]: 100%

CSC[C@H](C)NC(=O)c1c(I)cccc1C(=O)Nc1ccc(Cn2cc(C(F)(F)C(F)(F)C(F)(F)C(F)(F)F)c(C(F)(F)F)n2)cc1C [compound 648]
controlling effect, rate of death [1]: 100%
controlling effect, rate of death [2]: 100%

CSCC(C)NC(=O)c1c(I)cccc1C(=O)Nc1ccc(-c2cc(C(F)(F)F)nn2C(F)F)cc1C (centres unmarked) [compound 512]
controlling effect, rate of death [1]: 100%
controlling effect, rate of death [2]: 100%

CSCC(C)NC(=O)c1c(I)cccc1C(=O)Nc1ccc(Cn2nc(C(F)(F)F)cc2C(F)(F)F)cc1C (centres unmarked) [compound 86]
controlling effect, rate of death [1]: 100%
controlling effect, rate of death [2]: 100%

Cc1cc(Cn2nc(C(F)(F)F)cc2C(F)(F)F)ccc1NC(=O)c1cccc(Br)c1C(=O)NC(C)CS(C)(=O)=O (centres unmarked) [compound 53]
controlling effect, rate of death [1]: 100%
controlling effect, rate of death [2]: 100%

Cc1cc(C(C)n2nc(C(F)(F)F)cc2C(F)(F)F)ccc1NC(=O)c1cccc(I)c1C(=O)NC(C)(C)CS(C)(=O)=O (centres unmarked) [compound 567]
controlling effect, rate of death [1]: 100%
controlling effect, rate of death [2]: 100%

Cc1cc(Cn2nc(C(F)(F)F)cc2C(F)(F)F)ccc1NC(=O)c1cccc(Cl)c1C(=O)NC(C)CS(C)(=O)=O (racemic) [compound 15]
controlling effect, rate of death [1]: 100%
controlling effect, rate of death [2]: 100%

CSC[C@H](C)NC(=O)c1c(I)cccc1C(=O)Nc1ccc(Cn2cc(C(F)(F)C(F)(F)F)c(C(F)(F)C(F)(F)C(F)(F)F)n2)cc1C [compound 666]
controlling effect, rate of death [1]: 100%
controlling effect, rate of death [2]: 100%

Cc1cc(Cn2cc(C(F)(F)C(F)(F)F)c(C(F)(F)F)n2)ccc1NC(=O)c1cccc(Cl)c1C(=O)N[C@@H](C)C[S+](C)[O-] (some centres unmarked) [compound 638]
controlling effect, rate of death [1]: 100%
controlling effect, rate of death [2]: 100%

Cc1cc(Cn2nc(C(F)(F)F)cc2C(F)(F)F)ccc1NC(=O)c1cccc(I)c1C(=O)NC(C)C [compound 81]
controlling effect, rate of death [1]: 100%
controlling effect, rate of death [2]: 100%

Cc1cc(Cn2nc(C(F)(F)F)cc2C(F)(F)F)ccc1NC(=O)c1cccc(Cl)c1C(=O)NC(C)(C)C[S+](C)[O-] (racemic) [compound 9]
controlling effect, rate of death [1]: 100%
controlling effect, rate of death [2]: 100%

Cc1cc(Cn2cc(C(F)(F)C(F)(F)C(F)(F)F)c(C(F)(F)C(F)(F)F)n2)ccc1NC(=O)c1cccc(Cl)c1C(=O)N[C@@H](C)C[S+](C)[O-] (some centres unmarked) [compound 658]
controlling effect, rate of death [1]: 100%
controlling effect, rate of death [2]: 100%
